Measured values: PubChem BioAssay AID493110 (The Scripps Research Institute Molecular Screening Center, 2011)
Activity calls are given as the source filed them. The rule behind the calls is not given here.

Key:
LYPLA2 = assay: IC50 of LYPLA1/LYPLA2 inhibition – biochemical, gel-based ABPP, dose response (AID 493110); settings: competitive probe labeling
LYPLA1 = assay: as above; settings: competitive probe labeling

IC50 (LYPLA2) | IC50 (LYPLA1) | SMILES
30 nM | 17 nM | CC(C)(C)C1CCN(C(=O)n2ncc(C(O)(c3ccccc3)c3ccccc3)n2)CC1
> 10000 nM (inactive) | > 10000 nM (inactive) | CCC1CCCCN1C(=O)n1ncc(C(O)(c2ccccc2)c2ccccc2)n1 (stereo not given)
97 nM | 44 nM | CC(C)(O)c1cnn(C(=O)N2CCC(C(C)(C)C)CC2)n1
57 nM | 35 nM | CC(C)(C)C1CCN(C(=O)n2ncc(C3(O)CCCCC3)n2)CC1
inactive | 795 nM | O=C(N1CCOCC1)n1nnc2ccccc21
